In US12077503B2, “Substituted cyclic amides and their use as herbicides” (FMC CORPORATION, priority 2015, dated 2024):

Experiments:
Type in all cases: in vivo
[1] = system: barnyardgrass (Echinochloa crus-galli); test: Test G Pre-Emergence Protocol; settings: Echinochloa crus-galli, pre-emergence, 312 h, evaluated after 13 days; for pest or weed control at 15.625 g/ha: 15.625 g ai/ha; for pest or weed control at 15.625 g/ha / pest or weed control at 250 g/ha: read-out: Barnyardgrass damage rating (100=total damage to plant; 0=no damage to plant); for pest or weed control at 62.5 g/ha: 62.5 g ai/ha, 100=total damage to plant, 0=no damage to plant, read-out: Barnyardgrass damage rating; for pest or weed control at 250 g/ha: 250 g ai/ha
How it was run: (§1)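 Pots of seeds in standard soil were grown for one day in a glasshouse (24/16 °C day/night, 14 h light, 65% humidity), then sprayed with compound in acetone/water 50:50 with 0.5% Tween 20 at 15.625, 62.5 or 250 g/ha. Damage was scored after 13 days on a 0 (none) to 100 (total) scale.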

corn (Zea mays) [2] = test: Test G Pre-Emergence Protocol; settings: Zea mays, pre-emergence, 312 h, evaluated after 13 days; for plant injury at 15.625 g/ha: 15.625 g ai/ha; for plant injury at 15.625 g/ha / plant injury at 250 g/ha: read-out: Corn damage rating (100=total damage to plant; 0=no damage to plant); for plant injury at 62.5 g/ha: 62.5 g ai/ha, 100=total damage to plant, 0=no damage to plant, read-out: Corn damage rating; for plant injury at 250 g/ha: 250 g ai/ha
How it was run: as §1

[3] = system: giant foxtail (Setaria faberi); test: Test G Pre-Emergence Protocol; settings: Setaria faberi, pre-emergence, 312 h, evaluated after 13 days; for pest or weed control at 15.625 g/ha: 15.625 g ai/ha; for pest or weed control at 15.625 g/ha / pest or weed control at 250 g/ha: read-out: Foxtail, Giant damage rating (100=total damage to plant; 0=no damage to plant); for pest or weed control at 62.5 g/ha: 62.5 g ai/ha, 100=total damage to plant, 0=no damage to plant, read-out: Foxtail, Giant damage rating; for pest or weed control at 250 g/ha: 250 g ai/ha
How it was run: as §1

[4] = system: ivy-leaved morning glory (Ipomoea hederacea); test: Test G Pre-Emergence Protocol; settings: Ipomoea, pre-emergence, 312 h, evaluated after 13 days; for pest or weed control at 15.625 g/ha: 15.625 g ai/ha; for pest or weed control at 15.625 g/ha / pest or weed control at 250 g/ha: read-out: Morningglory, Ivy-leaved damage rating (100=total damage to plant; 0=no damage to plant); for pest or weed control at 62.5 g/ha: 62.5 g ai/ha, 100=total damage to plant, 0=no damage to plant, read-out: Morningglory, Ivy-leaved damage rating; for pest or weed control at 250 g/ha: 250 g ai/ha
How it was run: as §1

[5] = system: redroot pigweed (Amaranthus retroflexus); test: Test G Pre-Emergence Protocol; settings: Amaranthus retroflexus, pre-emergence, 312 h, evaluated after 13 days; for pest or weed control at 15.625 g/ha: 15.625 g ai/ha; for pest or weed control at 15.625 g/ha / pest or weed control at 250 g/ha: read-out: Pigweed, Redroot damage rating (100=total damage to plant; 0=no damage to plant); for pest or weed control at 62.5 g/ha: 62.5 g ai/ha, 100=total damage to plant, 0=no damage to plant, read-out: Pigweed, Redroot damage rating; for pest or weed control at 250 g/ha: 250 g ai/ha
How it was run: as §1

[6] = system: velvetleaf (Abutilon theophrasti); test: Test G Pre-Emergence Protocol; settings: Abutilon theophrasti, pre-emergence, 312 h, evaluated after 13 days; for pest or weed control at 15.625 g/ha: 15.625 g ai/ha; for pest or weed control at 15.625 g/ha / pest or weed control at 250 g/ha: read-out: Velvetleaf damage rating (100=total damage to plant; 0=no damage to plant); for pest or weed control at 62.5 g/ha: 62.5 g ai/ha, 100=total damage to plant, 0=no damage to plant, read-out: Velvetleaf damage rating; for pest or weed control at 250 g/ha: 250 g ai/ha
How it was run: as §1

[7] = system: barnyardgrass (Echinochloa crus-galli); test: Test G Post-Emergence Protocol; settings: Echinochloa crus-galli, post-emergence, 312 h, read-out: Barnyardgrass damage rating; for pest or weed control at 15.625 g/ha: 15.625 g ai/ha, evaluated after 13 days (100=total damage to plant; 0=no damage to plant); for pest or weed control at 62.5 g/ha: 62.5 g ai/ha; for pest or weed control at 62.5 g/ha / pest or weed control at 250 g/ha: evaluated after 13 days, 100=total damage to plant, 0=no damage to plant; for pest or weed control at 250 g/ha: 250 g ai/ha
How it was run: (§2)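 Values are percent visual injury at 13 days after treatment (0 none, 100 total). Treatment was a post-emergence spray at 15.625, 62.5 or 250 g/ha on 8-day-old pot plants kept at 24/16 °C.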

corn (Zea mays) [8] = test: Test G Post-Emergence Protocol; settings: Zea mays, post-emergence, 312 h, read-out: Corn damage rating; for plant injury at 15.625 g/ha: 15.625 g ai/ha, evaluated after 13 days (100=total damage to plant; 0=no damage to plant); for plant injury at 62.5 g/ha: 62.5 g ai/ha; for plant injury at 62.5 g/ha / plant injury at 250 g/ha: evaluated after 13 days, 100=total damage to plant, 0=no damage to plant; for plant injury at 250 g/ha: 250 g ai/ha
How it was run: as §2

[9] = system: giant foxtail (Setaria faberi); test: Test G Post-Emergence Protocol; settings: Setaria faberi, post-emergence, 312 h, read-out: Foxtail, Giant damage rating; for pest or weed control at 15.625 g/ha: 15.625 g ai/ha, evaluated after 13 days (100=total damage to plant; 0=no damage to plant); for pest or weed control at 62.5 g/ha: 62.5 g ai/ha; for pest or weed control at 62.5 g/ha / pest or weed control at 250 g/ha: evaluated after 13 days, 100=total damage to plant, 0=no damage to plant; for pest or weed control at 250 g/ha: 250 g ai/ha
How it was run: as §2

[10] = system: ivy-leaved morning glory (Ipomoea hederacea); test: Test G Post-Emergence Protocol; settings: Ipomoea, post-emergence, 312 h, read-out: Morningglory, Ivy-leaved damage rating; for pest or weed control at 15.625 g/ha: 15.625 g ai/ha, evaluated after 13 days (100=total damage to plant; 0=no damage to plant); for pest or weed control at 62.5 g/ha: 62.5 g ai/ha; for pest or weed control at 62.5 g/ha / pest or weed control at 250 g/ha: evaluated after 13 days, 100=total damage to plant, 0=no damage to plant; for pest or weed control at 250 g/ha: 250 g ai/ha
How it was run: as §2

[11] = system: redroot pigweed (Amaranthus retroflexus); test: Test G Post-Emergence Protocol; settings: Amaranthus retroflexus, post-emergence, 312 h, read-out: Pigweed, Redroot damage rating; for pest or weed control at 15.625 g/ha: 15.625 g ai/ha, evaluated after 13 days (100=total damage to plant; 0=no damage to plant); for pest or weed control at 62.5 g/ha: 62.5 g ai/ha; for pest or weed control at 62.5 g/ha / pest or weed control at 250 g/ha: evaluated after 13 days, 100=total damage to plant, 0=no damage to plant; for pest or weed control at 250 g/ha: 250 g ai/ha
How it was run: as §2

[12] = system: velvetleaf (Abutilon theophrasti); test: Test G Post-Emergence Protocol; settings: Abutilon theophrasti, post-emergence, 312 h, read-out: Velvetleaf damage rating; for pest or weed control at 15.625 g/ha: 15.625 g ai/ha, evaluated after 13 days (100=total damage to plant; 0=no damage to plant); for pest or weed control at 62.5 g/ha: 62.5 g ai/ha; for pest or weed control at 62.5 g/ha / pest or weed control at 250 g/ha: evaluated after 13 days, 100=total damage to plant, 0=no damage to plant; for pest or weed control at 250 g/ha: 250 g ai/ha
How it was run: as §2

CCc1cc([C@@H]2CN(C)C(=O)[C@H]2C(=O)Nc2cccc(F)c2C)ccc1Cl (racemic) [Compound 1804]
50%: pest or weed control at 15.625 g/ha [3] | pest or weed control at 62.5 g/ha [7] | pest or weed control at 62.5 g/ha [10]
70%: plant injury at 250 g/ha (corn (Zea mays) [8]) | pest or weed control at 62.5 g/ha [9]
30%: pest or weed control at 250 g/ha [5] | pest or weed control at 250 g/ha [6]
80%: pest or weed control at 62.5 g/ha [1] | pest or weed control at 250 g/ha [9]
0%: pest or weed control at 15.625 g/ha [1] | plant injury at 15.625 g/ha (corn (Zea mays) [2]) | plant injury at 62.5 g/ha (corn (Zea mays) [2]) | pest or weed control at 15.625 g/ha [4] | pest or weed control at 62.5 g/ha [4] | pest or weed control at 15.625 g/ha [5] | pest or weed control at 15.625 g/ha [6] | pest or weed control at 15.625 g/ha [7] | plant injury at 15.625 g/ha (corn (Zea mays) [8]) | plant injury at 62.5 g/ha (corn (Zea mays) [8]) | pest or weed control at 15.625 g/ha [9] | pest or weed control at 15.625 g/ha [10] | pest or weed control at 15.625 g/ha [11] | pest or weed control at 62.5 g/ha [11] | pest or weed control at 15.625 g/ha [12]
20%: pest or weed control at 62.5 g/ha [5]
90%: pest or weed control at 250 g/ha [1] | pest or weed control at 62.5 g/ha [3] | pest or weed control at 250 g/ha [3]
10%: pest or weed control at 250 g/ha [4] | pest or weed control at 62.5 g/ha [6] | pest or weed control at 250 g/ha [11] | pest or weed control at 62.5 g/ha [12] | pest or weed control at 250 g/ha [12]
60%: plant injury at 250 g/ha (corn (Zea mays) [2]) | pest or weed control at 250 g/ha [7] | pest or weed control at 250 g/ha [10]

CSc1ccncc1NC(=O)[C@H]1C(=O)N(C)C[C@@H]1c1cccc(C(F)(F)F)c1 (racemic) [Compound 1750]
50%: pest or weed control at 250 g/ha [9]
0%: pest or weed control at 15.625 g/ha [1] | plant injury at 15.625 g/ha (corn (Zea mays) [2]) | plant injury at 62.5 g/ha (corn (Zea mays) [2]) | pest or weed control at 15.625 g/ha [3] | pest or weed control at 15.625 g/ha [4] | pest or weed control at 62.5 g/ha [4] | pest or weed control at 250 g/ha [4] | pest or weed control at 15.625 g/ha [5] | pest or weed control at 62.5 g/ha [5] | pest or weed control at 250 g/ha [5] | pest or weed control at 15.625 g/ha [6] | pest or weed control at 62.5 g/ha [6] | pest or weed control at 250 g/ha [6] | pest or weed control at 15.625 g/ha [7] | pest or weed control at 62.5 g/ha [7] | plant injury at 15.625 g/ha (corn (Zea mays) [8]) | pest or weed control at 15.625 g/ha [9] | pest or weed control at 62.5 g/ha [9] | pest or weed control at 15.625 g/ha [10] | pest or weed control at 15.625 g/ha [11] | pest or weed control at 15.625 g/ha [12] | pest or weed control at 62.5 g/ha [12] | pest or weed control at 250 g/ha [12]
20%: pest or weed control at 62.5 g/ha [3] | pest or weed control at 250 g/ha [7] | pest or weed control at 250 g/ha [11]
10%: pest or weed control at 62.5 g/ha [1] | pest or weed control at 250 g/ha [1] | plant injury at 250 g/ha (corn (Zea mays) [2]) | plant injury at 62.5 g/ha (corn (Zea mays) [8]) | plant injury at 250 g/ha (corn (Zea mays) [8]) | pest or weed control at 62.5 g/ha [10] | pest or weed control at 250 g/ha [10] | pest or weed control at 62.5 g/ha [11]
70%: pest or weed control at 250 g/ha [3]
